pIC50: −log10 of the molar value.
What was measured:
[1] = tested on: type II and type III PRMTs as well as other methyltransferases; details: cited from earlier work
[2] = tested on: all type I PRMTs; details: cited from earlier work
[3] = target: PRMT8 (Homo sapiens, UniProt Q9NR22); experiment: PRMT8 biochemical inhibition assay
[4] = tested on: other PRMTs; experiment: Activity against other PRMTs; format: biochemical; details: PRMTs other than CARM1, PRMT6 and PRMT8
[5] = target: T1, CARM1 (Homo sapiens, UniProt Q86X55); experiment: Mechanism of action; format: biochemical; details: IC50 against CARM1 with increasing peptide substrate or SAM concentrations
T1 sequence (Q86X55 1-608): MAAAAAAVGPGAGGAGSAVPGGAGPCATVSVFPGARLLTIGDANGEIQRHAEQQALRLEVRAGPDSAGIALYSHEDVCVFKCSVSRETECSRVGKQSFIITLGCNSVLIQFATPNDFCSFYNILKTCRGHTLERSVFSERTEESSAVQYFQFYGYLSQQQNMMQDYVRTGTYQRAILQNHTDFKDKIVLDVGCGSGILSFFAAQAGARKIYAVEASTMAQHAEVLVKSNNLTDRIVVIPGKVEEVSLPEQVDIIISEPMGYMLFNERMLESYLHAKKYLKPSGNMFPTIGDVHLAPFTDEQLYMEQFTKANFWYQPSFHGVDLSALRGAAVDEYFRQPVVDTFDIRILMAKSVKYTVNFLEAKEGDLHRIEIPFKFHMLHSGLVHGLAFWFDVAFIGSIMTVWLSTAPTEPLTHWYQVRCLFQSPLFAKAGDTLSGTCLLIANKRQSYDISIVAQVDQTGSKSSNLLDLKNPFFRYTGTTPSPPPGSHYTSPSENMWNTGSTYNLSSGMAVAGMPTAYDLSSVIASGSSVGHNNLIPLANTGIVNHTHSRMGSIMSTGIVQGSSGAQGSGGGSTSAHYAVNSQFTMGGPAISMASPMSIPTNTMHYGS

Sequence of PRMT8 (Q9NR22 whole entry, species assumed): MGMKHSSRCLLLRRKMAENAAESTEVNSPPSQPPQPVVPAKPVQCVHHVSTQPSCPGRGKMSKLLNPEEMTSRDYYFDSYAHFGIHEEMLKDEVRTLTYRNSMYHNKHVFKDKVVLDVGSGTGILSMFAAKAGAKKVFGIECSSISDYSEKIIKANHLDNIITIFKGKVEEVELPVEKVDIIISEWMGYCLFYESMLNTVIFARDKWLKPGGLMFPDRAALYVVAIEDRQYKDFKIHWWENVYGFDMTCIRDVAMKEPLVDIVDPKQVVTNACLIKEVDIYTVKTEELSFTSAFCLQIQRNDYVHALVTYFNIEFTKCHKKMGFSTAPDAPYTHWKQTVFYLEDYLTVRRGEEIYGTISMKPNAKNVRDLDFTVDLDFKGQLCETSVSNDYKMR

CC(C)Oc1ccc(-c2c[nH]cc2CN(C)CCN)cc1 [MS023]
activity against type II and type III PRMTs and other methyltransferases [1]: inactive
activity against all type I PRMTs [2]: potent

CNCCN1CC(OCc2cccc(OC(F)(F)F)c2)C1 [Compound 6]
pIC50 [3]: 5.92
activity against other PRMTs [4]: inactive

CNCCN1CCC(NCc2cccc(Br)c2)CC1 [Compound 9]
mechanism of action versus cofactor SAM and peptide substrate [5]: noncompetitive
